The source of these data is ChEMBL document CHEMBL1132840, “Benzylidene ketal derivatives as M2 muscarinic receptor antagonists” (Bioorg Med Chem Lett, 2000).

Test [1] has as its target Muscarinic acetylcholine receptors; M2 & M3 (Homo sapiens) (UniProt P20309+P08172). Briefly: Selectivity ratio for M3 muscarinic receptor compared to M2 muscarinic receptor. The format is protein assay.
Test [2] has as its target Muscarinic acetylcholine receptors; M1 & M2 (Homo sapiens) (UniProt P11229+P08172). Briefly: Selectivity ratio for M1 muscarinic receptor compared to M2 muscarinic receptor. The format is protein assay.
The target in test [3] is T1, Muscarinic acetylcholine receptor M2 (Homo sapiens, UniProt P08172).
T1 sequence (P08172 whole entry): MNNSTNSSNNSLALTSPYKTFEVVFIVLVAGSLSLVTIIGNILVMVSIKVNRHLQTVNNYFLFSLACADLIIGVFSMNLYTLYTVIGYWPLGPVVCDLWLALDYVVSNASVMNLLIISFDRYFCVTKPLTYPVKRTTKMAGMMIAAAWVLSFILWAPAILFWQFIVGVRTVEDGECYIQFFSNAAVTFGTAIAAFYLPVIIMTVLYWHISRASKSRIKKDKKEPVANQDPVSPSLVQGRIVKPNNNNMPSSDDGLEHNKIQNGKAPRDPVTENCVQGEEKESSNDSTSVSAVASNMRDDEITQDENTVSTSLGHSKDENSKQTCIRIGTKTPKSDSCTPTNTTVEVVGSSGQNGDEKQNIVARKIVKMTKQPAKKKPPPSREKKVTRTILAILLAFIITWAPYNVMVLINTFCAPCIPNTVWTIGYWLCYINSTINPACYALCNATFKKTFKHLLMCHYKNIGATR
Briefly: Binding affinity at human cloned acetylcholine receptor M2 in CHO cells. It is filed as cell-based.

Sequence of Muscarinic acetylcholine receptors; M1 & M2 (Homo sapiens) (P11229 whole entry, looked up, one chain of several): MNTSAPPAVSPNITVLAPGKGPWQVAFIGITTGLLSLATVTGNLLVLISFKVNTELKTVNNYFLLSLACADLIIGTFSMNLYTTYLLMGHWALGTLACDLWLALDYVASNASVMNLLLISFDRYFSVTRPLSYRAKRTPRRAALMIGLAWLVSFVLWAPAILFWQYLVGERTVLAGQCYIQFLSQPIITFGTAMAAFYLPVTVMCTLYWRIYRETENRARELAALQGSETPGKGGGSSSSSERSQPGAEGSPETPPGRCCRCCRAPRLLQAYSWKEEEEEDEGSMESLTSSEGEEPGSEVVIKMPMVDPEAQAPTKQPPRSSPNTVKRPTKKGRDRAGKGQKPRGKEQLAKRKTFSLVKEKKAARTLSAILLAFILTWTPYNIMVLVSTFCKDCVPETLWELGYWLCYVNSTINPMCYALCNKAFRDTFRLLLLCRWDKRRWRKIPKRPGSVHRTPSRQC

One may read the Ki as a measure of affinity in units of concentration, obtained from inhibition or displacement. Read a high Ki as lower affinity. For `C=C(c1ccc(S(=O)(=O)c2ccc(OC)cc2)cc1)C1CCN(C2CCN(C(=O)OCC)CC2)CC1`, the Ratio worked out at 21.9 in test [1] and 68.3 in test [2]. The molecule also returned a Ki in test [3] of 0.07 nM.
In the same order, the values of `CCCS(=O)(=O)N1CCC(N2CCC(C3(c4ccc(S(=O)(=O)c5ccc6c(c5)OCO6)cc4)CCCO3)CC2)CC1` (centres undefined) are 0.24, 0.22 and 5.07 nM.
On the same counts, the results for `CCOC(=O)N1CCC(N2CCC(C3(c4ccc(S(=O)(=O)c5ccc(OC)cc5)cc4)SCCS3)CC2)CC1` are 3, 22.5 and 0.11 nM.
On the same counts, the results for `CCOC(=O)N1CCC(N2CCC(C3(c4ccc(S(=O)(=O)c5ccc(OC)cc5)cc4)SCCCS3)CC2)CC1` are 2.9, 4.4 and 14.3 nM.
As for `CCCS(=O)(=O)N1CCC(N2CCC(C3(c4ccc(S(=O)(=O)c5ccc6c(c5)OCO6)cc4)OCCO3)CC2)CC1`, the Ratio is 93 in test [1] and 102 in test [2].
Regarding `CCOC(=O)N1CCC(N2CCC(C3(c4ccc(S(=O)(=O)c5ccc6c(c5)OCO6)cc4)O[C@@H](C)[C@H](C)O3)CC2)CC1`, the Ratio in test [1] is 6.1; in test [2], 10.2. The inhibition constant Ki in test [3] turned out to be 1.82 nM.
On the same counts, the results for `CCCS(=O)(=O)N1CCC(N2CCC(C(=O)c3ccc(S(=O)(=O)c4ccc5c(c4)OCO5)cc3)CC2)CC1` are 93.4, 42.6 and 1.02 nM.
With `CCOC(=O)N1CCC(N2CCC(C(=O)c3ccc(S(=O)(=O)c4ccc5c(c4)OCO5)cc3)CC2)CC1`, the Ratio was 7.5 in test [1] and 47.6 in test [2]. The Ki in test [3] worked out at 0.13 nM.
On the same counts, the results for `CCOC(=O)N1CCC(N2CCC(C3(c4ccc(S(=O)(=O)c5ccc(OC)cc5)cc4)OCCCO3)CC2)CC1` are 14.4, 21 and 0.72 nM.
For `CCOC(=O)N1CCC(N2CCC(C(=O)c3ccc(S(=O)(=O)c4ccc(OC)cc4)cc3)CC2)CC1`, the Ratio in test [1] is 10.2; in test [2] it was 26.8. The Ki in test [3] came out at 2.91 nM.
In the same order, the values of `CCOC(=O)N1CCC(N2CCC(C3(c4ccc(S(=O)(=O)c5ccc6c(c5)OCO6)cc4)O[C@H](C)[C@@H](C)O3)CC2)CC1` are 46, 21.7 and 0.03 nM.
On the same counts, the results for `CCOC(=O)N1CCC(N2CCC(C3(c4ccc(S(=O)(=O)c5ccc(OC)cc5)cc4)OCCO3)CC2)CC1` are 7.1, 28.3 and 0.16 nM.
On the same counts, the results for `CCCS(=O)(=O)N1CCC(N2CCC(C3(c4ccc(S(=O)(=O)c5ccc6c(c5)OCO6)cc4)SCCS3)CC2)CC1` are 57.4, 62.6 and 0.031 nM.
For `CCCS(=O)(=O)N1CCC(N2CCC(C3(c4ccc([S+]([O-])c5ccc6c(c5)OCO6)cc4)SCCS3)CC2)CC1` (centres undefined), the figures for the Ratio in test [1] and in test [2] were 12.8 and 10.7, respectively. The molecule further gave a Ki in test [3] of 0.82 nM.
Take `CCCS(=O)(=O)N1CCC(N2CCC(C(=O)c3ccc([S+]([O-])c4ccc5c(c4)OCO5)cc3)CC2)CC1` (centres undefined): the Ratio in test [1] is 11.8; in test [2], 4.6. This molecule yielded a Ki in test [3] of 34.8 nM.
In the same order, the values of `CCOC(=O)N1CCC(N2CCC(C3(c4ccc(S(=O)(=O)c5ccc6c(c5)OCO6)cc4)OCCO3)CC2)CC1` are 1.3, 4.1 and 0.073 nM.
In the same order, the values of `CCCS(=O)(=O)N1CCC(N2CCC(C3(c4ccc([S+]([O-])c5ccc6c(c5)OCO6)cc4)O[C@H](C)[C@@H](C)O3)CC2)CC1` (some centres undefined) are 12.9, 7.5 and 9.09 nM.
In the same order, the values of `CCCS(=O)(=O)N1CCC(N2CCC(C3(c4ccc([S+]([O-])c5ccc6c(c5)OCO6)cc4)OCCO3)CC2)CC1` (centres undefined) are 10, 10.8 and 0.823 nM.
`CCCS(=O)(=O)N1CCC(N2CCC(C3(c4ccc(S(=O)(=O)c5ccc6c(c5)OCO6)cc4)O[C@H](C)[C@@H](C)O3)CC2)CC1`: the Ratio stood at 46.1 in test [1] and 8.7 in test [2]. Also, the Ki in test [3] amounted to 1.22 nM.
In the same order, the values of `CCCS(=O)(=O)N1CCC(N2CCC(C3(c4ccc([S+]([O-])c5ccc6c(c5)OCO6)cc4)CCCO3)CC2)CC1` (centres undefined) are 0.5, 0.49 and 12.1 nM.
